Experiments:
[1] = target: T1, human μ-opioid receptor (OPRM1) (Homo sapiens, UniProt P35372); test: cell-based; format: cell-based; conditions: for EC50: MOR Agonist EC50 ± SEM; for Emax: read-out: MOR Agonist %Emax ± SEM
T1 construct: host or cells: cAMP Hunter CHO-K1

[2] = target: T2, human κ-opioid receptor (OPRK1) (Homo sapiens, UniProt P41145); test: Forskolin-induced cAMP accumulation assay, KOR agonist mode; conditions: for Emax: CHO-K1, read-out: KOR Agonist %Emax ± SEM
[3] = target: human δ-opioid receptor (OPRD1) (Homo sapiens, UniProt P41143); test: Forskolin-induced cAMP accumulation assay, DOR agonist mode; conditions: for Emax: CHO-K1, read-out: DOR Agonist %Emax ± SEM; for DOR efficacy in words: cAMP assay
[4] = target: T2, human κ-opioid receptor (OPRK1); test: Forskolin-induced cAMP accumulation assay, KOR antagonist mode; conditions: for KOR Antagonist %Imax ± SEM: versus EC90 of U50488H, Imax normalized to nor-BNI

T2 sequence (P41145 whole entry): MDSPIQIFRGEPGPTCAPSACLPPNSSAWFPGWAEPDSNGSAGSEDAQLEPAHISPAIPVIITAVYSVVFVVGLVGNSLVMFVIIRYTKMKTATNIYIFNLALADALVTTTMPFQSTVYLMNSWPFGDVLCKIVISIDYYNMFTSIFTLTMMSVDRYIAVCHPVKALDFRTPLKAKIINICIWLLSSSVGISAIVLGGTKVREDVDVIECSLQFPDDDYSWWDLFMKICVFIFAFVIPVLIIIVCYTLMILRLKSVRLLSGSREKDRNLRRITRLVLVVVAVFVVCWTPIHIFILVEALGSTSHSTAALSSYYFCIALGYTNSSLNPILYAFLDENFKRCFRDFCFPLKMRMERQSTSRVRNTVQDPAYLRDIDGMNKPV
T1 sequence (P35372 whole entry): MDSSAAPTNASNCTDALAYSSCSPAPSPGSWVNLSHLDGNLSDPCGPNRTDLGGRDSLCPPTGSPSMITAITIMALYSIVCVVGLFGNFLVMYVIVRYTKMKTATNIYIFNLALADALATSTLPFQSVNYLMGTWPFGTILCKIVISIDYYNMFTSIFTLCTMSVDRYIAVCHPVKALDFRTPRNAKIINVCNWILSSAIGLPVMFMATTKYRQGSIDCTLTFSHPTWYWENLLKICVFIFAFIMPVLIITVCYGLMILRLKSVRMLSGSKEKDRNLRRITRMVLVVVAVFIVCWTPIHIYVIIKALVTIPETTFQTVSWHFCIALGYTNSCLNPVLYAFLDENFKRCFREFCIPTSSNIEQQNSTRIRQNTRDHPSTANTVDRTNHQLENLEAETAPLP
Chain of human δ-opioid receptor (OPRD1) (P41143 whole entry): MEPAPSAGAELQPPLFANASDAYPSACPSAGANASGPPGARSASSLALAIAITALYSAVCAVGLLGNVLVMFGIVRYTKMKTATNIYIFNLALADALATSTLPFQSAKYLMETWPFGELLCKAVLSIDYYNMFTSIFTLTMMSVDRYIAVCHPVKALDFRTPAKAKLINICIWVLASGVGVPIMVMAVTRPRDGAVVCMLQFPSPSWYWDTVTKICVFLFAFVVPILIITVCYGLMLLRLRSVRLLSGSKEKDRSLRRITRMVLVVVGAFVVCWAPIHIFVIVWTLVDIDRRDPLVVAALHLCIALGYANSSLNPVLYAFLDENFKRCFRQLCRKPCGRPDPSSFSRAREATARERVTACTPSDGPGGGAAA

Structure (SMILES)	EC50 [1] [nM]	Emax [1] [%]	EC50 [2] [nM]	Emax [2] [%]	EC50 [3] [nM]	Emax [3] [%]	IC50 [4] [nM]	KOR Antagonist %Imax ± SEM [4] [%]	MOR potency relative to morphine (times more potent than morphine) [1]	DOR efficacy in words [3]
C[C@H]1[C@H]2Cc3ccc(O)cc3[C@]1(C)CCN2CCc1ccc(F)cc1 [Compound 6, (2R,6R,11R)-6,11-Dimethyl-3-(4-fluorophenethyl)-1,2,3,4,5,6-hexahydro-2,6-methanobenzo[d]azocin-8-ol]	1.8	100	7 ± 3	34	12 ± 3	73	368 ± 92	71 ± 2		
CC1c2ccc(O)cc2[C@@]2(C)CCN(CCc3ccccc3)[C@@H]1[C@H]2C (single isomer, unassigned; (+)) [(+)-39]	21.7	103	953 ± 120	37	1340 ± 389	94	> 10000			
CC1C2Cc3ccc(O)cc3C1(C)CCN2CCc1ccccc1[N+](=O)[O-] [Compound 5, (1R,5R,9R)-6,11-Dimethyl-3-(2-nitrophenethyl)-1,2,3,4,5,6-hexahydro-2,6-methanobenzo[d]azocin-8-ol]	2.7	101	16 ± 4	23	37 ± 6	73	717 ± 132	89 ± 5		
CC1c2ccc(O)cc2[C@]2(C)CCN(CCc3ccccc3)[C@H]1[C@@H]2C (single isomer, unassigned; (-)) [(−)-39]	1.2	102	20.7 ± 6.1	38	12.6 ± 3.9	91	731 ± 362	57 ± 5		
C=C1c2ccc(O)cc2[C@@]2(C)CCN(CCc3ccccc3)[C@@H]1[C@H]2C [(+)-38, (2R,6S,11S)-6,11-Dimethyl-1-methylene-3-phenethyl-1,2,3,4,5,6-hexahydro-2,6-methanobenzo[d]azocin-8-ol]	70	102	1180 ± 46	53	978 ± 374	92				
CC1C2Cc3ccc(O)cc3C1(C)CCN2CCc1cccc(F)c1 [Compound 7, (1R,5R,9R)-6,11-Dimethyl-3-(3-fluorophenethyl)-1,2,3,4,5,6-hexahydro-2,6-methanobenzo[d]azocin-8-ol]	0.6	100	> 10000		11 ± 4	86	274 ± 83	87 ± 2		
C[C@H]1[C@H]2Cc3ccc(O)cc3[C@]1(C)CCN2CCc1c[nH]c2ccccc12 [Compound 26, (1R,5R,9R)-3-(2-(1H-Indol-3-yl)ethyl)-6,11-dimethyl-1,2,3,4,5,6-hexahydro-2,6-methanobenzo[d]azocin-8-ol]	12	102	> 10000		343 ± 35	91	> 10000			
CC1C2Cc3ccc(O)cc3C1(C)CCN2CCc1ccccc1F [Compound 8, (1R,5R,9R)-6,11-Dimethyl-3-(2-fluorophenethyl)-1,2,3,4,5,6-hexahydro-2,6-methanobenzo[d]azocin-8-ol]	0.2	101	6 ± 1	45	6 ± 2	87			about 30 times	
CC1C2Cc3ccc(O)cc3C1(C)CCN2CCc1cccc(Br)c1 [Compound 13, (1R,5R,9R)-6,11-Dimethyl-3-(3-bromophenethyl)-1,2,3,4,5,6-hexahydro-2,6-methanobenzo[d]azocin-8-ol]	18	78	> 10000		110 ± 24	51	90 ± 37	99 ± 2		
CC1C2Cc3ccc(O)cc3C1(C)CCN2CCc1ccc(O)cc1 [Compound 20, (1R,5R,9R)-6,11-Dimethyl-3-(4-hydroxyphenethyl)-1,2,3,4,5,6-hexahydro-2,6-methanobenzo[d]azocin-8-ol]	0.13	102	8 ± 3	97	5 ± 1	84			~40 times	
C[C@@H]1[C@@H]2C(O)c3ccc(O)cc3[C@@]1(C)CCN2CCc1ccccc1 (single isomer, unassigned; (+)) [(+)-36]	25.2	103	> 10000		1910 ± 232	97				
CC1C2Cc3ccc(O)cc3C1(C)CCN2CCc1ccc(C(F)(F)F)cc1 [Compound 9, (1R,5R,9R)-6,11-Dimethyl-3-(4-trifluoromethylphenethyl)-1,2,3,4,5,6-hexahydro-2,6-methanobenzo[d]azocin-8-ol]	2	102	23 ± 5	100	3 ± 1	72				partial DOR agonists
CC1C2Cc3ccc(O)cc3C1(C)CCN2CCc1c(Cl)cccc1Cl [Compound 22, (1R,5R,9R)-6,11-Dimethyl-3-(2,6-dichlorophenethyl)-1,2,3,4,5,6-hexahydro-2,6-methanobenzo[d]azocin-8-ol]	4	99	> 10000		59 ± 25	78	65 ± 24	87 ± 7		
CC1C2Cc3ccc(O)cc3C1(C)CCN2CCc1ccccc1Cl [Compound 17, (1R,5R,9R)-6,11-Dimethyl-3-(2-chlorophenethyl)-1,2,3,4,5,6-hexahydro-2,6-methanobenzo[d]azocin-8-ol]	1.4	101	8 ± 1	57	15 ± 4	87				
Cc1ccc(CCN2CCC3(C)c4cc(O)ccc4CC2C3C)cc1 [Compound 19, (1R,5R,9R)-6,11-Dimethyl-3-(4-methylphenethyl)-1,2,3,4,5,6-hexahydro-2,6-methanobenzo[d]azocin-8-ol]	1.4	103	13 ± 3	93	5 ± 2	87				
CC1C2Cc3ccc(O)cc3C1(C)CCN2CCc1ccc(Cl)cc1Cl [Compound 21, (1R,5R,9R)-6,11-Dimethyl-3-(2,4-dichlorophenethyl)-1,2,3,4,5,6-hexahydro-2,6-methanobenzo[d]azocin-8-ol]	5	103	42 ± 10	93	37 ± 9	86				
CC1C2Cc3ccc(O)cc3C1(C)CCN2CCc1ccccc1 [Compound 23, (1R,5R,9R)-6,11-Dimethyl-3-(phenethyl)-1,2,3,4,5,6-hexahydro-2,6-methanobenzo[d]azocin-8-ol]	0.27	101	3.4 ± 0.4	25	4 ± 1	85	281 ± 94	81 ± 5		
CC1C2Cc3ccc(O)cc3C1(C)CCN2CCc1ccc(Cl)cc1 [Compound 15, (1R,5R,9R)-6,11-Dimethyl-3-(4-chlorophenethyl)-1,2,3,4,5,6-hexahydro-2,6-methanobenzo[d]azocin-8-ol]	1.3	103	5 ± 1	97	1.2 ± 0.5	89				partial DOR agonists

Reference: PMC10708259 (Molecules, 2023)
